Laboratory results published in patent US20250302845A1, “SELECTIVE DOPAMINE INCREASE” (SOBRERA PHARMA AB, priority 2022, published 2025).
“Also recorded” adds a separate entry of the source.

Tests used:
Design in all cases: species or system Wistar Han rat
[1] = test system: dopamine (DA) in the nucleus accumbens (nAc); assay: In vivo microdialysis of dopamine in nucleus accumbens (Example 1); settings: for DA effect nAc vs DMS (brain region comparison over time): dual probe, Org 24598 9 mg/kg, varenicline 1.5 mg/kg
Procedure: (§1) 95 adult male Wistar Han rats (Envigo, Horst, Netherlands) were used in all experiments, weighing 280 to 350 g at the time of surgery (corresponding to approximately 9-10 weeks of age). The animals were housed in groups of five per cage (55×35×20 cm) at constant room temperature (22° C.), relative humidity (65%), and regular dark-light conditions (lights on at 7 AM and off at 7 PM). […] The animals were allowed to acclimate to the animal facilities for at least one week before surgery. This study was approved by the Ethics Committee for Animal Experiments, Gothenburg, Sweden and conducted according to national laws and guidelines for the care and use of laboratory animals.
(§2) Nicotine ((−)-nicotine hydrogen tartrate salt, Sigma, Stockholm, Sweden), 95% ethanol (Kemetyl AB, Stockholm, Sweden), varenicline (6,7,8,9-tetrahydro-6,10-methano-6H-pyrazino[2,3-h][3]benzazepine tartrate; provided by Pfizer Global Research and Development) and N-methyl-N-[(3R)-3-phenyl-3-[4-(trifluoromethyl) phenoxy]propyl]-glycine (Org 24598) (Tocris, Bristol, United Kingdom) were dissolved in physiological saline solution (0.9% NaCl) and administered subcutaneous (nicotine and varenicline) or intraperitoneal (ethanol and Org 24598) at a volume of 2 ml/kg (nicotine and varenicline), 5 ml/kg for EtOH and 4 ml/kg for Org 24598. The pH of the nicotine solution was neutralized with bicarbonate to approximately 7.2-7.4.
(§3) The microdialysis experiments were performed as previously described (Clarke, et al., 2014, Increase in nucleus accumbens dopamine levels following local ethanol administration is not mediated by acetaldehyde, Alcohol Alcohol 49, 498-504; Danielsson et al., 2021, Differential dopamine release by psychosis-generating and non-psychosis-generating addictive substances in the nucleus accumbens and dorsomedial striatum, Transl Psychiatry 11, 472). Animals were anaesthetized with isoflurane before being mounted into a stereotaxic instrument (David Kopf Instruments, AgnTho's, Stockholm, Sweden). The animals were equipped with either a standard in-house made single probe placed in the nAc (A/P +1.85, M/L −1.2, D/V −7.8) or the DMS (A/P+1.2, M/L −1.4, D/V −5.5) (Paxinos, 2007, The rat brain in stereotaxic coordinates. Amsterdam u.a.: Elsevier, Academic Press, Amsterdam), or a custom-made dual microdialysis probe (FIG. 1), which permits simultaneous sampling from both the nAc and DMS. Two additional holes were drilled in the skull in order to allow anchoring screws to be fastened, and the probe and screws were set in place using Harvard cement (DAB Dental AB, Stockholm, Sweden). The animals were then placed in single housing cages and allowed to recover for 48 h prior to the microdialysis experiment.
On the day of the experiment, the animals were connected to a microperfusion pump (U-864 Syringe Pump, AgnTho's, Sweden) via a swivel, which allowed the animals to move around the cage freely. During the entire experiment, the probes were perfused with Ringer solution at a rate of 2 μl/min, and dialysate samples were collected every 20 min. Baseline sampling commenced after a 2-hour period, during which a balanced fluid exchange was established. Once at least three consecutive stable DA values were obtained (±10%), pharmacological treatment was administered, followed by a total of 180 minutes of sampling.
(§4) Microdialysis samples were analyzed as previously described for DA (Clarke, et al., 2014, Increase in nucleus accumbens dopamine levels following local ethanol administration is not mediated by acetaldehyde, Alcohol Alcohol 49, 498-504). In brief, DA content was analyzed using high performance liquid chromatography (HPLC) with electrochemical detection, using an external standard containing 3.25 fmol/μl of DA to identify DA peaks and quantify DA content. The chromatograms were analyzed using the software Thermo Scientific Chromelion Chromatography System (CDS) Chromelion 7.

[2] = test system: dopamine (DA) in the dorsomedial striatum (DMS); assay: In vivo microdialysis of dopamine in dorsomedial striatum (Example 1)
Procedure: as §1, §2, §3
On the day of the experiment, the animals were connected to a microperfusion pump (U-864 Syringe Pump, AgnTho's, Sweden) via a swivel, which allowed the animals to move around the cage freely. […]
as §4

[3] = test system: dopamine (DA) in the nucleus accumbens (nAc); assay: In vivo microdialysis of dopamine in nucleus accumbens (Example 2)
Procedure: (§5) Adult male Wistar Han rats (Envigo, Horst, Netherlands) were used, weighing approximately 320 g at the time of surgery (corresponding to approximately 9-10 weeks of age). The animals were housed in groups of five per cage (55×35×20 cm) at constant room temperature (22° C.), relative humidity (65%), and regular dark-light conditions (lights on at 7 AM and off at 7 PM). All animals had ad libitum access to standard rat feed (Harlan Teklad, Envigo, Europe) and tap water. The animals were allowed to acclimate to the animal facilities for at least one week before surgery. This study was approved by the Ethics Committee for Animal Experiments, Gothenburg, Sweden and conducted according to national laws and guidelines for the care and use of laboratory animals.
(§6) The microdialysis experiments were performed as previously described (Clarke et al., 2014; Danielsson et al., 2021). […]
as §4, with “(Clarke” for “(Clarke,”, “2014).” for “2014, Increase in nucleus accumbens dopamine levels following local ethanol administration is not mediated by acetaldehyde, Alcohol Alcohol 49, 498-504).”

[4] = test system: dopamine (DA) in the dorsomedial striatum (DMS); assay: In vivo microdialysis of dopamine in dorsomedial striatum (Example 2); settings: 12 mg/kg i.p., dual probe, same Wistar rat, FIG. 5
Procedure: as §5, §6
as §4, with “(Clarke” for “(Clarke,”, “2014).” for “2014, Increase in nucleus accumbens dopamine levels following local ethanol administration is not mediated by acetaldehyde, Alcohol Alcohol 49, 498-504).”

[5] = single probe microdialysis, t=0-180 min, EtOH 2.5 g/kg intraperitoneal, nicotine 0.36 mg/kg subcutaneous, alone or combined
[6] = single probe microdialysis, t=0-180 min, EtOH 2.5 g/kg intraperitoneal, nicotine 0.36 mg/kg subcutaneous, alone or combined, listed as ethanol
[7] = dual probe microdialysis, 0-180 min, Org 24598 9 mg/kg intraperitoneal, varenicline 1.5 mg/kg subcutaneous, alone or combined
[8] = two-way ANOVA, 0-180 min, alone or combined

## CN1CCCC1c1cccnc1.O=C(O)C(O)C(O)C(=O)O (single isomer, unassigned; (-)) [nicotine, (−)-nicotine hydrogen tartrate salt]
[1]; rat, in vivo
  DA elevation nAc vs DMS (brain region comparison over time): no effect by brain region on the DA elevation
  effect on nAc DA vs vehicle (AUC): significant and substantial increase in accumbal DA
[2]; rat, in vivo
  effect on DMS DA vs vehicle (AUC): elevated DA significantly

## CCO [EtOH, ethanol]
[1]; [5]
  effect on nAc DA vs vehicle (AUC): transient increase in DA
[1]; [6]
  effect on nAc DA vs vehicle (AUC): not statistically significant
[1]; two-way ANOVA, t=0-180 min, EtOH 2.5 g/kg, nicotine 0.36 mg/kg, alone or combined
  DA elevation nAc vs DMS (brain region comparison over time): did not produce statistically different DA elevations in the nAc and the DMS
[2]; [5]
  effect on DMS DA vs vehicle (AUC): significantly increased DA over time
[2]; [6]
  effect on DMS DA vs vehicle (AUC): elevated DA significantly

## CN(CC[C@@H](Oc1ccc(C(F)(F)F)cc1)c1ccccc1)CC(=O)O [Org 24598, N-methyl-N-[(3R)-3-phenyl-3-[4-(trifluoromethyl)phenoxy]propyl]-glycine]
[1]; [7]
  effect on nAc DA vs vehicle (AUC): no significant effect; also recorded: minor DA increase
[1]; [8]
  DA effect nAc vs DMS (brain region comparison over time): did not differ between the two areas
[2]; [7]
  effect on DMS DA vs vehicle (AUC): minor DA increase

## COc1cc(C(=O)NCC2(N(C)C)CCCC2)cc(OC)c1OCc1ccccc1.Cl [Org 25543]
[3]; 12 mg/kg i.p., dual probe, same Wistar rat, FIG. 5
  effect on dopamine levels in nAc: increase in dopamine levels in nAc
[3]; 4 or 8 mg/kg i.p., systemic administration, FIG. 4
  effect on dopamine in the nAc: dose-dependent increase of dopamine in the nAc
[4]
  effect on dopamine levels in DMS: reduction in dopamine levels in DMS

## c1cnc2cc3c(cc2n1)[C@@H]1CNC[C@H]3C1 [varenicline, 7,8,9,10-tetrahydro-6,10-methano-6H-pyrazino[2,3-h][3]benzazepine]
[1]; [8]
  DA effect nAc vs DMS (brain region comparison over time): did also not differ between brain regions
[2]; [7]
  effect on DMS DA vs vehicle (AUC): small but significant elevation of DA over time
